Earlier results on one substance are cited in patent US9278997B2, “Processes for the manufacture of macrocyclic depsipeptides and new intermediates” (NOVARTIS AG, priority 2011, dated 2016).

For this series, the target named is chymotrypsin (Bos taurus, UniProt P00766). As to conditions: from J. Nat. Prod. 68(9), 1324-7 (2005); read-out: IC50 value for inhibition of chymotrypsin.

For orientation: IC50 means the concentration at which inhibition is half-maximal. Turning to “(S)-2-acetamido-N^1-((1S,2S,5S,8S,11R,12S,15S,18S,21R)-2-benzyl-21-hydroxy-5-(4-hydroxybenzyl)-15-isobutyl-8-isopropyl-4,11-dimethyl-3,6,9,13,16,22-hexaoxo-10-oxa-1,4,7,14,17-pentaazabicyclo[16.3.1]docosan-12-yl)pentanediamide [Nostopeptin BN920]”, the IC50 was 0.031 µM.
